Assay results reported in patent publication US20230086702A1, “SUBSTITUTED 2-AMINO-PYRAZOLYL-[1,2,4]TRIAZOLO[1,5A]PYRIDINE DERIVATIVES AND USE THEREOF” (The Johns Hopkins University, priority 2019, published 2023).

Experiments:
DLK = target: T1, DLK (Homo sapiens, UniProt Q12852); experiment: DLK biochemical assay (TR-FRET, MKK7 phosphorylation)
T1 construct: 10 nM DLK, catalytic domain, Carna Biosiences; purchased Carna Biosciences ('Carna Biosiences' [sic])
T1 sequence (Q12852 125-366 limits assumed): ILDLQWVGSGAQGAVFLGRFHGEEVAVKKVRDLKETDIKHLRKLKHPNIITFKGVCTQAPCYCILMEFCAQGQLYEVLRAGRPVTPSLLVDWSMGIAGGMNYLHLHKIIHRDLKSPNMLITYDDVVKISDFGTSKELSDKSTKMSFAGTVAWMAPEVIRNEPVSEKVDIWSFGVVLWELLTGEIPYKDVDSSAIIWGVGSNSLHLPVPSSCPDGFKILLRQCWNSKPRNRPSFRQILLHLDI
In short: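 TR-FRET read-out (665/Eu ratio) of MKK7 T275/S277 phosphorylation, with inhibition lowering the signal. Final conditions: 10 nM DLK catalytic domain, 15 nM MKK7, 60 μM ATP, 90 min at RT. Detection incubation 16 h at 37° C in 1536-well or 4° C in 384-well format.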

LZK = target: T2, LZK (Homo sapiens, UniProt O43283); experiment: LZK biochemical assay (TR-FRET, MKK7 phosphorylation)
T2 construct: 10 nM LZK, catalytic domain, Carna Biosiences in assay buffer; purchased Carna Biosciences ('Carna Biosiences' [sic])
T2 sequence (O43283 168-409 limits assumed): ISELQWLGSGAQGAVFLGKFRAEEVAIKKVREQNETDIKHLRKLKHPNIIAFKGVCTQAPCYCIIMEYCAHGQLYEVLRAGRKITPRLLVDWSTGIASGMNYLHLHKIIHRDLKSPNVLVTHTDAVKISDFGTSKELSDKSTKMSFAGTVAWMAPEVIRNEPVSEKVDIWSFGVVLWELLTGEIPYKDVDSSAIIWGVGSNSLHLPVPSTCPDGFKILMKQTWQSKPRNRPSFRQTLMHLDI
In short: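 Read-out is HTRF: Eu-labelled anti-phospho-MKK7 (T275/S277) and XL665 anti-His, incubated 16 h at 32 °C, with a drop in signal marking inhibition. Reaction beforehand: 10 nM LZK kinase domain, 15 nM His-MKK7, 15 µM ATP (final) for 90 min at room temperature, pH 7.5.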

Compound `CCC(c1ccc(C(F)(F)F)nc1)n1cc(-c2cc(-c3cnn(CC(F)(F)F)c3)c3nc(N)nn3c2)cn1` (single isomer, unassigned) [II-113, 8-[1-(2,2,2-trifluoroethyl)-1H-pyrazol-4-yl]-6-(1-{1-[6-(trifluoromethyl)pyridin-3-yl]propyl}-1H-pyrazol-4-yl)[1,2,4]triazolo[1,5-a]pyridin-2-amine] has an IC50 (DLK) of 23 nM and an IC50 (LZK) of 59 nM.

`CCC(c1ccc(OC(F)(F)F)nc1)n1cc(-c2cc(-c3cnn(CC(F)(F)F)c3)n3nc(N)nc3c2)cn1` (single isomer, unassigned) [II-115, 5-[1-(2,2,2-Trifluoroethyl)-1H-pyrazol-4-yl]-7-(1-{1-[6-(trifluoromethoxy)pyridin-3-yl]propyl}-1H-pyrazol-4-yl)[1,2,4]triazolo[1,5-a]pyridin-2-amine] was tested, and the IC50 (DLK) was 67 nM and the IC50 (LZK) was 138 nM.

For `CC[C@@H](c1ccc(OC(F)(F)F)nc1)n1cc(-c2cc(-c3cnn(CC(F)(F)F)c3)n3nc(N)nc3c2)cn1` (single isomer, unassigned) [II-116, 5-[1-(2,2,2-Trifluoroethyl)-1H-pyrazol-4-yl]-7-(1-{1-[6-(trifluoromethoxy)pyridin-3-yl]propyl}-1H-pyrazol-4-yl)[1,2,4]triazolo[1,5-a]pyridin-2-amine], the IC50 (DLK) was 9.7 nM and the IC50 (LZK) was 22 nM.

With `Nc1nc2c(-c3cnn(CC(F)(F)F)c3)cc(-c3cnn(C(c4ccc(C(F)(F)F)nc4)C4CCOCC4)c3)cn2n1` (single isomer, unassigned) [II-118, 6-(1-{Tetrahydro-2H-pyran-4-yl[6-(trifluoromethyl)pyridin-3-yl]methyl}-1H-pyrazol-4-yl)-8-[1-(2,2,2-trifluoroethyl)-1H-pyrazol-4-yl][1,2,4]triazolo[1,5-a]pyridin-2-amine] the IC50 (DLK) was 0.6 nM and the IC50 (LZK) was 2.6 nM.

Work on `Nc1nc2c(-c3cnn(CC(F)(F)F)c3)cc(-c3cnn(C(c4ccc(C(F)(F)F)nc4)C4CCOCC4)c3)cn2n1` (single isomer, unassigned) [II-119, 6-(1-{Tetrahydro-2H-pyran-4-yl[6-(trifluoromethyl)pyridin-3-yl]methyl}-1H-pyrazol-4-yl)-8-[1-(2,2,2-trifluoroethyl)-1H-pyrazol-4-yl][1,2,4]triazolo[1,5-a]pyridin-2-amine] yielded an IC50 (DLK) of 4.7 nM and an IC50 (LZK) of 16 nM.

`CCC(c1ccc(C(F)(F)F)cc1)n1cc(-c2cc(-c3cnn(CC(F)(F)F)c3)n3nc(N)nc3c2)cn1` (single isomer, unassigned) [II-130, 5-[1-(2,2,2-Trifluoroethyl)-1H-pyrazol-4-yl]-7-(1-{1-[4-(trifluoromethyl)phenyl]propyl}-1H-pyrazol-4-yl)[1,2,4]triazolo[1,5-a]pyridin-2-amine] was tested, and the IC50 (DLK) was 120 nM and the IC50 (LZK) was 670 nM.

`CCC(c1ccc(C(F)(F)F)cc1)n1cc(-c2cc(-c3cnn(CC(F)(F)F)c3)n3nc(N)nc3c2)cn1` (single isomer, unassigned) [II-131, 5-[1-(2,2,2-Trifluoroethyl)-1H-pyrazol-4-yl]-7-(1-{1-[4-(trifluoromethyl)phenyl]propyl}-1H-pyrazol-4-yl)[1,2,4]triazolo[1,5-a]pyridin-2-amine] was tested, and the IC50 (DLK) was 25 nM and the IC50 (LZK) was 165 nM.

Compound `CCC(c1ccc(C(F)(F)F)cc1)n1cc(-c2cc(-c3cnn(C4CCCC4)c3)n3nc(N)nc3c2)cn1` (single isomer, unassigned) [II-133, 5-(1-Cyclopentyl-1H-pyrazol-4-yl)-7-(1-{1-[4-(trifluoromethyl)phenyl]propyl}-1H-pyrazol-4-yl)[1,2,4]triazolo[1,5-a]pyridin-2-amine] has an IC50 (DLK) of 45 nM and an IC50 (LZK) of 130 nM.

`CCC(c1ccc(C(F)(F)F)cc1)n1cc(-c2cc(-c3cnn(C4CCCC4)c3)n3nc(N)nc3c2)cn1` (single isomer, unassigned) [II-134, 5-(1-Cyclopentyl-1H-pyrazol-4-yl)-7-(1-{1-[4-(trifluoromethyl)phenyl]propyl}-1H-pyrazol-4-yl)[1,2,4]triazolo[1,5-a]pyridin-2-amine] gave an IC50 (DLK) of 32 nM and an IC50 (LZK) of 44 nM.

`COc1cc(C(C(C)C)n2cc(-c3cc(-c4cnn(CC(F)(F)F)c4)n4nc(N)nc4c3)cn2)ccn1` (single isomer, unassigned) [II-137, 7-{1-[1-(2-Methoxypyridin-4-yl)-2-methylpropyl]-1H-pyrazol-4-yl}-5-[1-(2,2,2-trifluoroethyl)-1H-pyrazol-4-yl][1,2,4]triazolo[1,5-a]pyridin-2-amine] gave an IC50 (DLK) of 40 nM and an IC50 (LZK) of 720 nM.

For `CC(C)C(c1ccc(C(F)(F)F)nc1)n1cc(-c2cc(-c3cnn(CC(F)(F)F)c3)n3nc(N)nc3c2)cn1` (single isomer, unassigned) [II-141, 7-(1-{2-Methyl-1-[6-(trifluoromethyl)pyridin-3-yl]propyl}-1H-pyrazol-4-yl)-5-[1-(2,2,2-trifluoroethyl)-1H-pyrazol-4-yl][1,2,4]triazolo[1,5-a]pyridin-2-amine], the IC50 (DLK) was 23 nM and the IC50 (LZK) was 140 nM.

`CC(C)C(c1ccc(C(F)(F)F)nc1)n1cc(-c2cc(-c3cnn(C4CCCC4)c3)n3nc(N)nc3c2)cn1` (single isomer, unassigned) [II-144, 5-(1-Cyclopentyl-1H-pyrazol-4-yl)-7-(1-{2-methyl-1-[6-(trifluoromethyl)pyridin-3-yl]propyl}-1H-pyrazol-4-yl)[1,2,4]triazolo[1,5-a]pyridin-2-amine] showed an IC50 (DLK) of 27 nM and an IC50 (LZK) of 57 nM.

With `Nc1nc2cc(-c3cnn(C(c4ccccc4)C4CCOCC4)c3)cc(-c3cnn(CC(F)(F)F)c3)n2n1` (single isomer, unassigned) [II-147, 7-{1-[Phenyl(tetrahydro-2H-pyran-4-yl)methyl]-1H-pyrazol-4-yl}-5-[1-(2,2,2-trifluoroethyl)-1H-pyrazol-4-yl][1,2,4]triazolo[1,5-a]pyridin-2-amine] the IC50 (DLK) was 2.3 nM and the IC50 (LZK) was 73 nM.

Compound `Nc1nc2cc(-c3cnn(C(c4ccccc4)C4CCOCC4)c3)cc(-c3cnn(CC(F)(F)F)c3)n2n1` (single isomer, unassigned) [II-148, 7-{1-[Phenyl(tetrahydro-2H-pyran-4-yl)methyl]-1H-pyrazol-4-yl}-5-[1-(2,2,2-trifluoroethyl)-1H-pyrazol-4-yl][1,2,4]triazolo[1,5-a]pyridin-2-amine] has an IC50 (DLK) of 22 nM and an IC50 (LZK) of 170 nM.

`Nc1nc2cc(-c3cnn(C(c4ccc(C(F)(F)F)nc4)C4CCOCC4)c3)cc(-c3cnn(CC(F)(F)F)c3)n2n1` (single isomer, unassigned) [II-150, 7-(1-{Tetrahydro-2H-pyran-4-yl[6-(trifluoromethyl)pyridin-3-yl]methyl}-1H-pyrazol-4-yl)-5-[1-(2,2,2-trifluoroethyl)-1H-pyrazol-4-yl][1,2,4]triazolo[1,5-a]pyridin-2-amine] showed an IC50 (DLK) of 1.4 nM and an IC50 (LZK) of 4.9 nM.

`Nc1nc2cc(-c3cnn(C(c4ccc(C(F)(F)F)nc4)C4CCOCC4)c3)cc(-c3cnn(CC(F)(F)F)c3)n2n1` (single isomer, unassigned) [II-151, 7-(1-{Tetrahydro-2H-pyran-4-yl[6-(trifluoromethyl)pyridin-3-yl]methyl}-1H-pyrazol-4-yl)-5-[1-(2,2,2-trifluoroethyl)-1H-pyrazol-4-yl][1,2,4]triazolo[1,5-a]pyridin-2-amine] was tested, and the IC50 (DLK) was 11 nM and the IC50 (LZK) was 11 nM.

`Nc1nc2c(-c3ccc(=O)n(C(F)F)c3)cc(-c3cnn(C(c4ccc(C(F)(F)F)nc4)C4CCOCC4)c3)cn2n1` (single isomer, unassigned) [II-154, 5-[2-Amino-6-(1-{tetrahydro-2H-pyran-4-yl[6-(trifluoromethyl)pyridin-3-yl]methyl}-1H-pyrazol-4-yl)[1,2,4]triazolo[1,5-a]pyridin-8-yl]-1-(difluoromethyl)pyridin-2(1H)-one] showed an IC50 (DLK) of 6.2 nM and an IC50 (LZK) of 15 nM.

`Nc1nc2c(-c3ccc(=O)n(C(F)F)c3)cc(-c3cnn(C(c4ccc(C(F)(F)F)nc4)C4CCOCC4)c3)cn2n1` (single isomer, unassigned) [II-155, 5-[2-Amino-6-(1-{tetrahydro-2H-pyran-4-yl[6-(trifluoromethyl)pyridin-3-yl]methyl}-1H-pyrazol-4-yl)[1,2,4]triazolo[1,5-a]pyridin-8-yl]-1-(difluoromethyl)pyridin-2(1H)-one] was tested, and the IC50 (DLK) was 1 nM and the IC50 (LZK) was 3.1 nM.

In the case of `Nc1nc2c(-c3ccc(=O)n(CC(F)F)c3)cc(-c3cnn(C(c4ccc(C(F)(F)F)nc4)C4CCOCC4)c3)cn2n1` (single isomer, unassigned) [II-157, 5-[2-Amino-6-(1-{tetrahydro-2H-pyran-4-yl[6-(trifluoromethyl)pyridin-3-yl]methyl}-1H-pyrazol-4-yl)[1,2,4]triazolo[1,5-a]pyridin-8-yl]-1-(2,2-difluoroethyl)pyridin-2(1H)-one], the IC50 (DLK) is reported as 5.9 nM and the IC50 (LZK) is reported as 12 nM.
